Data as given in patent publication US12570642B2, “GLP-IR modulating compounds” (Gilead Sciences, Inc., priority 2021, dated 2026).

Molecular target: GLP-1R (Homo sapiens, UniProt P43220)
Assay: GLP-1R Activation - cAMP Assay
Assay type: cell-based
Conditions: cAMP increase in CHO cells stably expressing GLP-1R; each compound run on one of the two cAMP assays (Assay 1 or Assay 2, not specified)
Procedure, shortened: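 cAMP rise read by HTRF after 30 min agonist exposure (10-point titration, 37 °C) in HBSS/20 mM Hepes/0.1% BSA, following 1 h pre-incubation. Cells: stable GLP-1R CHO line, 1,000/well, seeded overnight. Sigmoidal fit of response vs log concentration gives EC50.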

Chain of GLP-1R (P43220 24-463): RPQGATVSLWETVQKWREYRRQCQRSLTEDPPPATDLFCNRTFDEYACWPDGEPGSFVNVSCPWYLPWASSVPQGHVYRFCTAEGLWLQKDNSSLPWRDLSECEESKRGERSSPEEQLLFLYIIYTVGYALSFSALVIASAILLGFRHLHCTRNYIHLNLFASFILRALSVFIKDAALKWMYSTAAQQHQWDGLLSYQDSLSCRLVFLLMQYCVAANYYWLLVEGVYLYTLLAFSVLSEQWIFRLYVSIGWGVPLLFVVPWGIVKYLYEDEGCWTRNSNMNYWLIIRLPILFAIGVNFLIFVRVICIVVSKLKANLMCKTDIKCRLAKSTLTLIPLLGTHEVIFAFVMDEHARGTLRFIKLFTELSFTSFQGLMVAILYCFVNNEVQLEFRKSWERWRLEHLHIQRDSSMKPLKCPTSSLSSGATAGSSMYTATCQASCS

| Compound | EC50 [nM] |
| --- | --- |
| CC1(C)COC[C@H]1n1c(Cc2cc(F)c(-c3cccc(OCc4ccc(C#N)cc4)n3)cc2F)nc2cc(O)c(C(=O)O)cc21 [Example 401, (S)-2-(4-(6-((4-cyanobenzyl)oxy)pyridin-2-yl)-2,5-difluorobenzyl)-1-(4,4-dimethyltetrahydrofuran-3-yl)-5-hydroxy-1H-benzo[d]imidazole-6-carboxylic acid] | 0.247 |
| CC1(C)COC[C@H]1n1c(Cc2c(F)cc(-c3ccc(Cl)c(OCc4ccc(C#N)cc4)n3)c(F)c2F)nc2ccc(C(=O)O)cc21 [Example 415, (S)-2-(4-(5-chloro-6-((4-cyanobenzyl)oxy)pyridin-2-yl)-2,3,6-trifluorobenzyl)-1-(4,4-dimethyltetrahydrofuran-3-yl)-1H-benzo[d]imidazole-6-carboxylic acid] | 0.491 |
| N#Cc1ccc(COc2cccc(-c3cc(F)c(Cc4nc5ccc(C(=O)O)cc5n4C4COC[C@@H]4CO)cc3F)n2)c(F)c1 (mixture of isomers) [Example 216, 2-(4-(6-((4-cyano-2-fluorobenzyl)oxy)pyridin-2-yl)-2,5-difluorobenzyl)-1-((3S,4S)-4-(hydroxymethyl)tetrahydrofuran-3-yl)-1H-benzo[d]imidazole-6-carboxylic acid] | 0.056 |
| CC1(C)COC[C@H]1n1c(Cc2cc(F)c(-c3cccc(OCc4ccc(-n5ccnn5)cc4F)n3)cc2F)nc2ccc(C(=O)O)cc21 [Example 167, (S)-2-(2,5-difluoro-4-(6-((2-fluoro-4-(1H-1,2,3-triazol-1-yl)benzyl)oxy)pyridin-2-yl)benzyl)-1-(4,4-dimethyltetrahydrofuran-3-yl)-1H-benzo[d]imidazole-6-carboxylic Acid] | 0.027 |
| Cc1cc(Cc2nc3ccc(C(=O)O)cc3n2[C@@H]2COCC2(C)C)c(F)cc1-c1cccc(OCc2ccc(C#N)cc2F)n1 [Example 278, (S)-2-(4-(6-((4-cyano-2-fluorobenzyl)oxy)pyridin-2-yl)-2-fluoro-5-methylbenzyl)-1-(4,4-dimethyltetrahydrofuran-3-yl)-1H-benzo[d]imidazole-6-carboxylic acid] | 0.085 |
| CO[C@H](C)Cn1c(Cc2cc(F)c(-c3cccc(OCc4ccc(C#N)cc4F)n3)cc2F)nc2c(F)cc(C(=O)O)cc21 [Example 355, (R)-2-(4-(6-((4-cyano-2-fluorobenzyl)oxy)pyridin-2-yl)-2,5-difluorobenzyl)-4-fluoro-1-(2-methoxypropyl)-1H-benzo[d]imidazole-6-carboxylic acid] | 1.21 |
| Cn1cc(-c2cc(F)c(COc3cccc(-c4cc(F)c(Cc5nc6ccc(C(=O)O)cc6n5[C@H]5COCC5(C)C)cc4F)n3)cn2)cn1 [Example 57] | 2.06 |
| COCCn1c(Cc2c(F)cc(-c3ccc(F)c(OCc4ccc(-n5ccnn5)cc4)n3)c(F)c2F)nc2c(F)cc(C(=O)O)cc21 [Example 223, 2-(4-(6-((4-(1H-1,2,3-triazol-1-yl)benzyl)oxy)-5-fluoropyridin-2-yl)-2,3,6-trifluorobenzyl)-4-fluoro-1-(2-methoxyethyl)-1H-benzo[d]imidazole-6-carboxylic acid] | 0.126 |
| COCCn1c(Cc2cc(F)c(-c3cccc(OCc4ccc(-c5ncnn5C)cc4F)n3)cc2F)nc2ccc(C(=O)O)cc21 [Example 112] | 23 |
| COCCn1c(Cc2cc(F)c(-c3cccc(OCc4cnc(C)cn4)n3)cc2F)nc2ccc(C(=O)O)cc21 [Example 29, 2-(2,5-difluoro-4-(6-((5-methylpyrazin-2-yl)methoxy)pyridin-2-yl)benzyl)-1-(2-methoxyethyl)-1H-benzo[d]imidazole-6-carboxylic Acid] | 36 |
| Cc1cc(Cc2nc3c(F)cc(C(=O)O)cc3n2[C@@H]2COCC2(C)C)c(Cl)cc1-c1ccc(F)c(OCc2ccc(C#N)cc2)n1 [Example 136, (S)-2-(2-chloro-4-(6-((4-cyanobenzyl)oxy)-5-fluoropyridin-2-yl)-5-methylbenzyl)-1-(4,4-dimethyltetrahydrofuran-3-yl)-4-fluoro-1H-benzo[d]imidazole-6-carboxylic Acid] | 0.312 |
| COCCn1c(Cc2c(F)cc(-c3cccc(OCc4ccc(Cl)cc4F)n3)c(F)c2F)nc2c(F)cc(C(=O)O)cc21 [Example 251, 2-(4-(6-((4-chloro-2-fluorobenzyl)oxy)pyridin-2-yl)-2,3,6-trifluorobenzyl)-4-fluoro-1-(2-methoxyethyl)-1H-benzo[d]imidazole-6-carboxylic acid] | 0.079 |
| CC1(C)COC[C@H]1n1c(Cc2cc(F)c(-c3ccc(F)c(OCc4ccc(F)cc4)n3)cc2F)nc2ccc(C(=O)O)cc21 [Example 557, (S)-2-(2,5-difluoro-4-(5-fluoro-6-((4-fluorobenzyl)oxy)pyridin-2-yl)benzyl)-1-(4,4-dimethyltetrahydrofuran-3-yl)-1H-benzo[d]imidazole-6-carboxylic acid] | 0.031 |
| CC1(C)COC[C@H]1n1c(Cc2cc(F)c(-c3ccc(F)c(OCc4ccc(C#N)cc4)n3)cc2F)nc2ccc(C(=O)O)cc21 [Example 188, (S)-2-(4-(6-((4-cyanobenzyl)oxy)-5-fluoropyridin-2-yl)-2,5-difluorobenzyl)-1-(4,4-dimethyltetrahydrofuran-3-yl)-1H-benzo[d]imidazole-6-carboxylic acid] | 0.032 |
| C[C@@H]1COC[C@H]1n1c(Cc2cc(F)c(-c3cccc(OCc4ccc(C#N)cc4F)n3)cc2F)nc2ccc(C(=O)O)cc21 (racemic) [Example 266, 2-(4-(6-((4-cyano-2-fluorobenzyl)oxy)pyridin-2-yl)-2,5-difluorobenzyl)-1-((3S,4S)-4-methyltetrahydrofuran-3-yl)-1H-benzo[d]imidazole-6-carboxylic acid] | 0.363 |
| Cc1cc(Cc2nc3ccc(C(=O)O)cc3n2[C@@H]2COCC2(C)C)c(F)cc1-c1ccnc(OCc2ccc(C#N)cc2)n1 [Example 178, (S)-2-(4-(2-((4-cyanobenzyl)oxy)pyrimidin-4-yl)-2-fluoro-5-methylbenzyl)-1-(4,4-dimethyltetrahydrofuran-3-yl)-1H-benzo[d]imidazole-6-carboxylic Acid] | 0.499 |
| CC1(C)COC[C@H]1n1c(Cc2cc(F)c(-c3cccc(OCc4cc(F)c(C#N)cc4F)n3)cc2F)nc2c(F)cc(C(=O)O)cc21 [Example 204, (S)-2-(4-(6-((4-cyano-2,5-difluorobenzyl)oxy)pyridin-2-yl)-2,5-difluorobenzyl)-1-(4,4-dimethyltetrahydrofuran-3-yl)-4-fluoro-1H-benzo[d]imidazole-6-carboxylic acid] | 0.09 |
| COCCn1c(Cc2cc(F)c(-c3cccc(OCc4ccc(C#N)cc4F)n3)cc2F)nc2c(-c3ccccn3)cc(C(=O)O)cc21 [Example 84] | 1.34 |
| Cc1ccc(COc2cccc(-c3cc(F)c(Cc4nc5ccc(C(=O)O)cc5n4[C@@H]4COCC4(C)C)cc3F)n2)c(F)n1 [Example 252, (S)-2-(2,5-difluoro-4-(6-((2-fluoro-6-methylpyridin-3-yl)methoxy)pyridin-2-yl)benzyl)-1-(4,4-dimethyltetrahydrofuran-3-yl)-1H-benzo[d]imidazole-6-carboxylic acid] | 0.059 |
| CC1(C)COCC1n1c(Cc2cc(F)c(-c3cccc(OCc4ccc(C#N)cc4F)n3)cc2F)nc2ccc(C(=O)O)cc21 (centres unmarked) [Example 78, 2-(4-(6-((4-cyano-2-fluorobenzyl)oxy)pyridin-2-yl)-2,5-difluorobenzyl)-1-(4,4-dimethyltetrahydrofuran-3-yl)-1H-benzo[d]imidazole-6-carboxylic Acid] | 0.36 |
| CC1(C)COC[C@H]1n1c(Cc2cc(F)c(-c3cccc(OCc4ccc(Cl)cc4)n3)cc2F)nc2ccc(C(=O)O)nc21 [Example 438, (S)-2-(4-(6-((4-chlorobenzyl)oxy)pyridin-2-yl)-2,5-difluorobenzyl)-3-(4,4-dimethyltetrahydrofuran-3-yl)-3H-imidazo[4,5-b]pyridine-5-carboxylic acid] | 0.519 |
| Cc1cc(Cc2nc3ccc(C(=O)O)cc3n2[C@@H]2COCC2(C)C)c(F)cc1-c1ccc(F)c(OCc2ccc(C#N)cc2)n1 [Example 180, (S)-2-(4-(6-((4-cyanobenzyl)oxy)-5-fluoropyridin-2-yl)-2-fluoro-5-methylbenzyl)-1-(4,4-dimethyltetrahydrofuran-3-yl)-1H-benzo[d]imidazole-6-carboxylic Acid] | 0.089 |
| CC1(C)COC[C@H]1n1c(Cc2cc(F)c(-c3ccc(F)c(OCc4cnc(-n5ccnn5)cc4Cl)n3)cc2F)nc2ccc(C(=O)O)cc21 [Example 160, (S)-2-(4-(6-((4-chloro-6-(1H-1,2,3-triazol-1-yl)pyridin-3-yl)methoxy)-5-fluoropyridin-2-yl)-2,5-difluorobenzyl)-1-(4,4-dimethyltetrahydrofuran-3-yl)-1H-benzo[d]imidazole-6-carboxylic Acid] | 0.035 |
| COCCn1c(Cc2c(F)cc(-c3cccc(OCc4ccc(-n5ccnn5)cc4Cl)n3)c(F)c2F)nc2ccc(C(=O)O)cc21 [Example 403, 2-(4-(6-((2-chloro-4-(1H-1,2,3-triazol-1-yl)benzyl)oxy)pyridin-2-yl)-2,3,6-trifluorobenzyl)-1-(2-methoxyethyl)-1H-benzo[d]imidazole-6-carboxylic acid] | 0.081 |
| Cc1cc(Cc2nc3c(F)cc(C(=O)O)cc3n2[C@@H]2COCC2(C)C)c(Cl)cc1-c1ccnc(OCc2ccc(C#N)cc2F)n1 [Example 319, (S)-2-(2-chloro-4-(2-((4-cyano-2-fluorobenzyl)oxy)pyrimidin-4-yl)-5-methylbenzyl)-1-(4,4-dimethyltetrahydrofuran-3-yl)-4-fluoro-1H-benzo[d]imidazole-6-carboxylic acid] | 0.346 |
| COC[C@H]1COC[C@H]1n1c(Cc2cc(F)c(-c3cccc(OCc4ccc(C(F)(F)F)cc4)n3)cc2F)nc2ccc(C(=O)O)cc21 [Example 556, 2-(2,5-difluoro-4-(6-((4-(trifluoromethyl)benzyl)oxy)pyridin-2-yl)benzyl)-1-((3S,4S)-4-(methoxymethyl)tetrahydrofuran-3-yl)-1H-benzo[d]imidazole-6-carboxylic acid] | 0.262 |
